The text below walks through data of US20070185094A1, “Novel 3-substitued-1,4-benzodiazepines” (ASTON UNIVERSITY, priority 2003, published 2007).

Like-named read-outs stand apart in the source and are kept apart here.

The target of data set [1] is T1, pancreatic and gallbladder CCK receptors (Homo sapiens, UniProt P32238).
T1 sequence (P32238 1-428): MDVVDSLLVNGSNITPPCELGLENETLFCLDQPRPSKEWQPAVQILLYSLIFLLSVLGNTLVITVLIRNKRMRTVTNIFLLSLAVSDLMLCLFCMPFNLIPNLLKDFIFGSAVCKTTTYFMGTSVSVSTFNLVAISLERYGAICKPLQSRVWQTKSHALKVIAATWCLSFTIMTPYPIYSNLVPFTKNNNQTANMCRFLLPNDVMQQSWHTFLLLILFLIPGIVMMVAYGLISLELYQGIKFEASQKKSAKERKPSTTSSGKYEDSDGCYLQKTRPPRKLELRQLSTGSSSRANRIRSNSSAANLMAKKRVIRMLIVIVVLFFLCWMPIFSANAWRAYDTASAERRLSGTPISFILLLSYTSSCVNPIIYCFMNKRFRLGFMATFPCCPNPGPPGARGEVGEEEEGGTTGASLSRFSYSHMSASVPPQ
Particulars: cited from earlier work.

A further data set relates to MIA-PaCa2 cells. Particulars: cited from earlier work; for IC50: MIA-PaCa2, read-out: IC50 cytotoxicity.
The test system of data set [2] is advanced pancreatic cancer. The following applies: 18 patients; cited from earlier work.
The test system of the next data set is HT29-S-B6 cells. Particulars: 10 μM, at least 3 days, exponential phase; cited from earlier work.
For data set [3], the target named is T2, CCKB receptor (Cavia porcellus, UniProt H0VZC5).
T2 sequence (H0VZC5 1-426): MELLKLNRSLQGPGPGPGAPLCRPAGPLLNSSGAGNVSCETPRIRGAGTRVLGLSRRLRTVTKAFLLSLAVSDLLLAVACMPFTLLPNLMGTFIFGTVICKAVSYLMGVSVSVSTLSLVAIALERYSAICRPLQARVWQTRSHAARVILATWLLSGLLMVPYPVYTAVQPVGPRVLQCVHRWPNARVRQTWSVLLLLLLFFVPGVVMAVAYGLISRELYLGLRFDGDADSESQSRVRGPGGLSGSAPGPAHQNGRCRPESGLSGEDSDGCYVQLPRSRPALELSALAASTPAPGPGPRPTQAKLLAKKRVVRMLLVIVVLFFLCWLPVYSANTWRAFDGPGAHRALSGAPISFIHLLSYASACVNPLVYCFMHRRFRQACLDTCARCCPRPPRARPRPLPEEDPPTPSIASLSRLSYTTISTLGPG
The data set is described as follows: 125I-CCK-8 receptor binding assay, CCKB (guinea pig cerebral cortex). The following applies: IC50 CCKB. As for the experimental part: CCKA and CCKB receptor binding assays were performed, by using guinea pig cerebral cortex (CCKB) or rat pancreas (CCKA). […]. J. Pharmacol., 269, 249-254]. Pancreatic membranes were prepared in a similar way but by Charpentier et al [(1988), Cyclic cholecystokinin analogues with high selectivity for central receptors., Proc Natl Acad Sci USA, 85, 1968-1972]. The […] CCK binding assay: Tissues were homogenised in ice cold sucrose (0.32 M, 25 ml) for 15 strokes at 500 rpm and centrifuged at 13000 rpm for 10 mins. The supernatant was re-centrifuged at 13000 rpm for 20 mins. The resulting pellet was re-dispersed to the required volume of buffer at 500 rpm and stored in aliquots at […].
(§1) The samples were incubated {with membranes (0.1 mg/ml)} in 20 mM Hepes, 1 mM EGTA, 5 mM MgCl2, 150 mm NaCl, 0.25 mg/ml bacitracin at pH 6.5 for 2 hrs at RT and then […] by centrifugation at 1100 rpm for 5 minutes. The membrane pellets were washed twice with water and the bound radioactivity was measured in a Packard Cobra Auto-gamma counter (B5005). All binding assays were carried out with L-363, 260 as an internal non-specific standard. Controls (no compound) were also added. All samples were made in duplicate and repeated twice. All compounds were initially screened for percentage inhibition at 20 μM.

The target in the next data set is T3, CCKA receptor (Rattus norvegicus, UniProt P30551).
T3 construct: Pancreatic membranes were prepared in a similar way; from tissue; host or cells: rat pancreas membranes
T3 sequence (P30551 1-444): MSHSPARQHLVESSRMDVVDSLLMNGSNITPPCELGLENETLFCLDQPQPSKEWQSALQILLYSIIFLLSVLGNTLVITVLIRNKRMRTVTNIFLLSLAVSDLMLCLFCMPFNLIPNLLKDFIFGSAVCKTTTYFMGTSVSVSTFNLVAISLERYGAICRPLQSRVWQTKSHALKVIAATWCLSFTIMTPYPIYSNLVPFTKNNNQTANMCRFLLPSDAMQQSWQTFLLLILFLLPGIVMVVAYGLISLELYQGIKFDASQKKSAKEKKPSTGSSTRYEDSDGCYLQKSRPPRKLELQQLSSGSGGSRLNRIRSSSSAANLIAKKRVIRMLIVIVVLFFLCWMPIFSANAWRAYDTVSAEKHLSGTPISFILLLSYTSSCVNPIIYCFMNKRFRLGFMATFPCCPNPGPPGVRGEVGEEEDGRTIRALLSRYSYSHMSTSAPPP
The experiment in a line: 125I-CCK-8 receptor binding assay, CCKA (rat pancreas). Particulars: for Ratio CCKB:CCKA: ratio of IC50 values; for CCKA binding activity in words: dimethylanilines with at least one meta group. As for the experimental part: CCKA and CCKB receptor binding assays were performed, by using guinea pig cerebral cortex (CCKB) or rat pancreas (CCKA). Male guinea pig brain tissues were prepared according to the modified method described by Saita et al [(1994), Characterization of YM022: its CCKB/gastrin receptor binding profile and antagonism to CCK-8-induced Ca2+ mobilization., Eur. J. Pharmacol., 269, 249-254]. Pancreatic membranes were prepared in a similar way but by Charpentier et al [(1988), Cyclic cholecystokinin analogues with high selectivity for central receptors., Proc Natl Acad Sci USA, 85, 1968-1972]. The […] CCK binding assay: Tissues were homogenised in ice cold sucrose (0.32 M, 25 ml) for 15 strokes at 500 rpm and centrifuged at 13000 rpm for 10 mins. The supernatant was re-centrifuged at 13000 rpm for 20 mins. The resulting pellet was re-dispersed to the required volume of buffer at 500 rpm and stored in aliquots at […].
as §1

The conditions of data set [4]: mice, after intravenous injections; cited from earlier work.
The target of data set [5] is CCKB receptor. The following applies: cited from earlier work.
The conditions of data set [6]: satiated rats; cited from earlier work.
For data set [7] the following is noted: as the HCl salt; cited from earlier work.
Another data set concerns CCKB/gastrin receptor. Particulars: cited from earlier work.

Turning to `CC(C)C[C@@H]1N[C@H]2N(C1=O)c1ccccc1[C@@]2(O)C[C@@H]1NC(=O)c2ccccc2-n2c1nc1ccccc1c2=O` [Asperlicin], in [1], the “affinity relative to proglumide” value is 300-400 times.
Turning to `N.N.[Cl][Pt][Cl]` [DDP, cisplatin], the IC50 in the data set on MIA-PaCa2 cells (1-h exposure) was 35300 ± 3200 nM.
Consider `CN1C(=O)[C@@H](NC(=O)c2cc3ccccc3[nH]2)N=C(c2ccccc2)c2ccccc21` [Devazepide], for which, in [2], the “impact on tumor progression, pain, or nutrition” value was “failed to demonstrate any impact” and the “patients able to tolerate treatment” value is on record as 17 of 18. For the same molecule, the “factor of enhancement of sensitivity of MIA-PaCa2 cells to DDP” value with MIA-PaCa2 cells is reported as 3.5. Besides, in the data set on MIA-PaCa2 cells (constant exposure schedule), the IC50 is 9500 ± 1400 nM. In addition, in the data set on HT29-S-B6 cells, the “enhancement of baseline production of carcinoembryonic antigens” value is listed as 5 fold and the “enhancement of baseline production of gastric M1 mucins” value was 2-3 fold.
On to `O=C1Nc2ccc(Cl)cc2C(c2ccccc2)=NC1Nc1ccccc1Cl` (stereo not drawn) [Example 38], for which the IC50 on CCKB receptor [3] (Table 3) was 9300 nM; on CCKA receptor (Table 3) it was greater than 20000 nM.
With `O=C1Nc2ccc(Cl)cc2C(c2ccccc2)=NC1Nc1cccc(Cl)c1` (stereo not drawn) [Example 39, 7-chloro-3-(3-chloroanilino)-5-phenyl-1,3-dihydro-2H-1,4-benzodiazepin-2-one], the IC50 at CCKB receptor [3] (Table 3) stood at 6200 nM; on CCKA receptor, 270 nM. The “Ratio CCKB:CCKA” value at CCKA receptor (Table 3) amounted to 23.
As to `COc1ccccc1NC1N=C(c2ccccc2)c2cc(Cl)ccc2NC1=O` (stereo not drawn) [Example 41], the IC50 on CCKB receptor [3] (Table 3) is 1500 nM; at CCKA receptor (Table 3), greater than 20000 nM.
The corresponding values for `COc1ccc(NC2N=C(c3ccccc3)c3cc(Cl)ccc3NC2=O)cc1` (stereo not drawn) [Example 43, 7-chloro-3-(4-methoxyanilino)-5-phenyl-1,3-dihydro-2H-1,4-benzodiazepin-2-one] are greater than 10000 nM and no less than 20000 nM.
Turning to `Cc1ccc(NC2N=C(c3ccccc3)c3cc(Cl)ccc3NC2=O)cc1` (stereo not drawn) [Example 46], the IC50 is 4600 nM at CCKB receptor [3] (Table 3) and 290 nM on CCKA receptor (Table 3). At CCKA receptor (Table 3), the “Ratio CCKB:CCKA” value was 16.
As to `Cc1cccc(C)c1NC1N=C(c2ccccc2)c2cc(Cl)ccc2NC1=O` (stereo not drawn) [Example 47], the IC50 at CCKB receptor [3] (Table 3) is greater than 10000 nM; at CCKA receptor (Table 3), 10000 nM.
In turn, `Cc1ccc(NC2N=C(c3ccccc3)c3cc(Cl)ccc3NC2=O)cc1C` (stereo not drawn) [Example 48] gave an IC50 at CCKB receptor [3] (Table 3) of 920 nM. Besides, at CCKA receptor (Table 3), the IC50 is 15 nM and the “Ratio CCKB:CCKA” value came to 61. The “CCKA binding activity in words” value on CCKA receptor is given as “equally active”.
Regarding `Cc1cccc(NC2N=C(c3ccccc3)c3cc(Cl)ccc3NC2=O)c1C` (stereo not drawn) [Example 49], the IC50 on CCKB receptor [3] (Table 3) was found to be 6000 nM. At CCKA receptor (Table 3), the IC50 amounted to 18 nM and the “Ratio CCKB:CCKA” value is reported as 333. For the same molecule, the “CCKA binding activity in words” value at CCKA receptor is listed as “equally active”.
On to `Cc1cc(C)cc(NC2N=C(c3ccccc3)c3cc(Cl)ccc3NC2=O)c1` (stereo not drawn) [Example 50], for which the IC50 on CCKB receptor [3] (Table 3) amounted to 2900 nM; at CCKA receptor (Table 3) it was 9 nM. Moreover, the “Ratio CCKB:CCKA” value at CCKA receptor (Table 3) amounted to 322. Further, at CCKA receptor, the “CCKA binding activity in words” value is on record as “equally active”.
The molecule `O=C1Nc2ccc(Cl)cc2C(c2ccccc2)=NC1Nc1ccccc1` (stereo not drawn) [Example 53] displayed an IC50 on CCKB receptor [3] (Table 3) of 4100 nM. For the same molecule, on CCKA receptor (Table 3), the IC50 worked out at 240 nM and the “Ratio CCKB:CCKA” value amounted to 17.
In the case of `CN(c1ccccc1)C1N=C(c2ccccc2)c2cc(Cl)ccc2NC1=O` (stereo not drawn) [Example 54], the IC50 at CCKB receptor [3] (Table 3) turned out to be 150 nM; at CCKA receptor, 14 nM. In addition, at CCKA receptor (Table 3), the “Ratio CCKB:CCKA” value is on record as 11.
Take `Cc1cccc(N(C)C2N=C(c3ccccc3)c3cc(Cl)ccc3NC2=O)c1` (stereo not drawn) [Example 55, 7-chloro-3-(3-dimethylanilino)-5-phenyl-1,3-dihydro-2H-1,4-benzodiazepin-2-one]: the IC50 turned out to be 70 nM at CCKB receptor [3] and 8 nM at CCKA receptor. The “Ratio CCKB:CCKA” value at CCKA receptor (Table 3) was determined as 9.
`CCN(c1cccc(C)c1)C1N=C(c2ccccc2)c2cc(Cl)ccc2NC1=O` (stereo not drawn) [Example 56] gave an IC50 on CCKB receptor [3] (Table 3) of 650 nM. Also, on CCKA receptor (Table 3), the IC50 was determined as 330 nM and the “Ratio CCKB:CCKA” value stood at 2.
`Cc1cccc(NC(=O)N[C@@H]2N=C(c3ccccc3)c3ccccc3N(C)C2=O)c1` [L-365,260]: the brain uptake in data set [4] was less than 0.8 % dose/gram. Besides, at CCKB receptor [5], the IC50 is 8.5 nM, the “affinity for gastrin/CCKB receptors relative to pancreatic CCKA” value is 80 fold and the “selectivity for CCKB receptors over CCKA” value was 87 fold. Besides, the “potency relative to Devazepide in increasing feeding frequency” value in [6] is 100 times.
On to `Cc1cccc(NC(=O)NC2N=C(C3CCCCC3)c3ccccc3N(C)C2=O)c1` [L-708,474], for which, on CCKB receptor [5], the IC50 is 0.28 nM and the “selectivity for CCKB receptors over CCKA” value was 6,500 fold.
Take `Cc1ccc(NC(=O)NC2N=C(C3CCCCC3)c3ccccc3N(C)C2=O)cc1Nc1nnn[nH]1` [L-737,425]: the CCKA/CCKB ratio in the data set on CCKB receptor [5] is 37000.
In the case of `Cc1cccc(NC(=O)NC2N=C(N3CC4CCC(C4)C3)c3ccccc3N(C)C2=O)c1` [L-740,093], the “water solubility compared to L-365,260” value in [7] was “one hundred fold improved”.
For the molecule `Cc1cccc(NC(=O)NC2N=C(c3ccccc3)c3ccccc3N(CC(=O)c3ccccc3C)C2=O)c1` (stereo not drawn) [YM022], the CCKA/CCKB ratio result in the data set with CCKB/gastrin receptor was “about 1300”. Besides, the IC50 on CCKB/gastrin receptor (read-out: IC50 CCKB/gastrin receptor affinity) is 0.11 nM.
